Measured values published in US8877946B2, “Benzylidene-indolinone compounds and their medical use” (National University of Singapore, priority 2011, dated 2014).

Tested on: HuH7 cells
Test: MTT antiproliferative (growth inhibition) assay on HuH7 cells
Format: cell-based, human
Details: Homo sapiens, Huh-7, MTT, 72 h incubation, mean and SD of 3 or more independent determinations (Tables 1-8), read-out: IC 50
From the text: MTT was purchased from DUCHEFA Biochemie ([…]). Sunitinib, and sodium dodecyl sulfate, bovine serum albuminwere obtained from Sigma Aldrich (Singapore). Sorafenib was purchase from Ontario Chem. Fetal bovine serum (FBS) was obtained from Invitrogen. Human hepatocellular carcinoma cells (HuH-7 and Hep G2), and human diploid fibroblast strain (IMR 90). HuH7 was obtained as gifts from Dr Ho Han Kiat, Department of Pharmacy, NUS. IMR90 and Hep G2 were purchased from American Type Culture Collection (ATCC). HuH-7 cells were cultured in DMEM (Dulbecco's Modified Eagle Medium, high glucose) with 10% v/v fetal bovine serum (FBS), 100 mg/L penicillin G and 100 mg/L streptomycin. IMR 90 cell were cultured in EMEM (Eagle's Minimum Essential Medium), with 10% v/v FBS and 100 mg/L penicillin G and 100 mg/L streptomycin. The cells were sub-cultured when HuH7 or Hep G2 reached a density of 70-80×10^5 cell/T75 flask, and IMR 90 reached 20×10^5 cell/T75 flask. Cells were used within 2-10 passages for viability experiments.
The anti-proliferative activity of the test compounds were determined by the MTT assay. An aliquot (200 μL, 3×10^4 cells/mL for HuH7, 3.75×10^4 cells/mL for Hep G2, and 2×10^4 cells/mL for IMR 90) of medium was added to each well of the microtitre plate. […] The existing medium was removed from each well and replaced by fresh medium (200 μL) containing a known concentration of test compound. The final concentration of DMSO in each well was maintained at 0.5% v/v. (1% v/v was also utilized if the compounds were not soluble) The test compounds were incubated with the cells for another 72 h at 37 deg C., 5% CO2. The medium was then removed from the well and replaced with FBS free medium (200 μL) and MTT (50 μL of 2 mg/mL solution in phosphate buffer saline, pH 7.4). The phosphate buffer saline comprises 10 mM of potassium phosphate and 137 mM sodium chloride. After incubation (3 h) at 37 deg C., 5% CO2, the supernatant was removed and a solution of 200 μL DMSO and 25 μL Sorenson buffer (0.1 M glycine, 0.1 M sodium chloride, adjusted to pH 10.5 with 0.1 M sodium hydroxide) was added to dissolve the formazan crystals in each well. Vehicle control were cells grown in 1% v/v DMSO/Medium for 72 h, 37 deg C., 5% CO2 while blank controls were wells that contained only 200 μL DMSO and 25 μL Sorenson buffer. Absorbances were measured at 570 nm on a microplate reader (Tecan, Infinite 200). The viability of cells at a given concentration of test compound was determined from the expression:
[formula] where abs_compound=absorbance of wells containing cells and test compound, abs_vehicle (Not the same as above. Change to abs_vehicle)=absorbance of vehicle control and abs_blank=absorbance of blank control.
Each concentration of test compound was evaluated at least 3 times on separate occasions, and two different stock solution were used. The IC50 value (concentration that inhibited 50% of cell growth) was determined from the sigmoidal curve obtained by plotting percentage viability versus logarithmic concentration of test compound using GraphPad Prism 5 (San Diego, USA).

Compound	IC50 [µM]
O=C1Nc2cc(F)ccc2/C1=C\c1ccc(C(F)(F)F)cc1 [Compound 3-7, (E)-6-Fluoro-3-(4-trifluoromethyl-benzylidene)-1,3-dihydro-indol-2-one]	8.42 ± 0.27
O=C1Nc2cc(F)ccc2/C1=C\c1cccc(OC(F)(F)F)c1 [Compound 3-8, (E)-6-Fluoro-3-(3-trifluoromethoxyl-benzylidene)-1,3-dihydro-indol-2-one]	7.48 ± 0.2
CS(=O)(=O)c1cccc(/C=C2/C(=O)Nc3cc(F)ccc32)c1 [Compound 3-9, (E)-6-Fluoro-3-(3-methanesulfonyl-benzylidene)-1,3-dihydro-indol-2-one]	12.7 ± 1.54
O=C1Nc2ccc(F)cc2/C1=C\c1ccccc1 [Compound 4-1, (E)-3-Benzylidene-5-fluoro-1,3-dihydro-indol-2-one]	21.4 ± 1.73
O=C1Nc2ccc(F)cc2/C1=C\c1ccccc1F [Compound 4-2, (E)-5-Fluoro-3-(2-fluoro-benzylidene)-1,3-dihydro-indol-2-one]	> 30
O=C1Nc2ccc(F)cc2/C1=C\c1cccc(F)c1 [Compound 4-3, (E)-5-Fluoro-3-(3-fluoro-benzylidene)-1,3-dihydro-indol-2-one]	13.3 ± 2.31
O=C1Nc2ccc(F)cc2/C1=C\c1ccc(F)cc1 [Compound 4-4, (E)-5-Fluoro-3-(4-fluoro-benzylidene)-1,3-dihydro-indol-2-one]	13.2 ± 0.42
Cc1ccccc1/C=C1/C(=O)Nc2ccc(F)cc21 [Compound 4-5, (E)-5-Fluoro-3-(2-methyl-benzylidene)-1,3-dihydro-indol-2-one]	11.7 ± 1.1
Cc1cccc(/C=C2/C(=O)Nc3ccc(F)cc32)c1 [Compound 4-6, (E)-5-Fluoro-3-(3-methyl-benzylidene)-1,3-dihydro-indol-2-one]	> 30
Cc1ccc(/C=C2/C(=O)Nc3ccc(F)cc32)cc1 [Compound 4-7, (E)-5-Fluoro-3-(4-methyl-benzylidene)-1,3-dihydro-indol-2-one]	20.8 ± 4.02
COc1cccc(/C=C2/C(=O)Nc3ccc(F)cc32)c1 [Compound 4-8, (E)-5-Fluoro-3-(3-methoxy-benzylidene)-1,3-dihydro-indol-2-one]	16.4 ± 4.15
O=C1Nc2ccc(F)cc2/C1=C\c1ccccc1C(F)(F)F [Compound 4-9, (E)-5-Fluoro-3-(2-trifluoromethyl-benzylidene)-1,3-dihydro-indol-2-one]	> 30
O=C1Nc2ccc(F)cc2/C1=C\c1cccc(C(F)(F)F)c1 [Compound 4-10, (E)-5-Fluoro-3-(3-trifluoromethyl-benzylidene)-1,3-dihydro-indol-2-one, reference compound]	4.04 ± 0.54
O=C1Nc2ccc(F)cc2/C1=C\c1ccc(C(F)(F)F)cc1 [Compound 4-11, (E)-5-Fluoro-3-(4-trifluoromethylbenzylidene)-1,3-dihydro-indol-2-one]	9.31 ± 1.04
O=C1Nc2ccc(F)cc2/C1=C\c1ccc(F)c(F)c1 [Compound 4-12, (E)-3-(3,4-Difluoro-benzylidene)-5-fluoro-1,3-dihydro-indol-2-one]	15.3 ± 0.18
O=C1Nc2ccc(F)cc2/C1=C\c1cccc(OC(F)(F)F)c1 [Compound 4-13, (E)-5-Fluoro-3-(3-trifluoromethoxy-benzylidene)-1,3-dihydro-indol-2-one]	23.1 ± 4.75
CS(=O)(=O)c1cccc(/C=C2/C(=O)Nc3ccc(F)cc32)c1 [Compound 4-14, (E)-5-Fluoro-3-(3-methanesulfonyl-benzylidene)-1,3-dihydro-indol-2-one]	5.19 ± 0.63
N#Cc1cccc(/C=C2/C(=O)Nc3ccc(F)cc32)c1 [Compound 4-15, (E) 3-(5-Fluoro-2-oxo-1,2-dihydro-indol-3-ylidenemethyl)-benzonitrile]	7.36 ± 1.08
COc1ccc2c(c1)NC(=O)/C2=C/c1ccccc1 [Compound 5-1, (E)-3-Benzylidene-6-methoxy-1,3-dihydro-indol-2-one]	0.94 ± 0.19
COc1ccc2c(c1)NC(=O)/C2=C/c1ccccc1F [Compound 5-2, (E)-3-(2-Fluoro-benzylidene)-6-methoxy-1,3-dihydro-indol-2-one]	0.49 ± 0.05

Results, then the compound that gave them:

IC50 [µM]	Compound
0.71 ± 0.07	COc1ccc2c(c1)NC(=O)/C2=C/c1cccc(F)c1 [Compound 5-3, (E)-3-(3-Fluoro-benzylidene)-6-methoxy-1,3-dihydro-indol-2-one]
5.36 ± 0.14	COc1ccc2c(c1)NC(=O)/C2=C/c1ccc(F)cc1 [Compound 5-4, (E)-3-(4-Fluorobenzylidene)-6-methoxy-1,3-dihydro-indol-2-one]
7.04 ± 0.8	COc1ccc2c(c1)NC(=O)/C2=C/c1ccccc1C(F)(F)F [Compound 5-5, (E) 6-Methoxy-3-(2-trifluoromethyl-benzylidene)-1,3-dihydro-indol-2-one]
1.2 ± 0.05	COc1ccc2c(c1)NC(=O)/C2=C/c1cccc(C(F)(F)F)c1 [Compound 5-6, (E)-6-Methoxy-3-(3-trifluoromethyl-benzylidene)-1,3-dihydro-indol-2-one, reference compound]
> 30	COc1ccc2c(c1)NC(=O)/C2=C/c1ccc(C(F)(F)F)cc1 [Compound 5-7, (E)-6-Methoxy-3-(4-trifluoromethyl-benzylidene)-1,3-dihydro-indol-2-one]
0.17 ± 0.02	CNS(=O)(=O)c1cccc(/C=C2/C(=O)Nc3cc(OC)ccc32)c1 [Compound 5-8, (E)-3-(6-Methoxy-2-oxo-1,2-dihydro-indol-3-ylidenemethyl)-N-methyl-benzenesulphonamide]
31.1 ± 2.12	O=C1Nc2ccc(F)c(F)c2/C1=C/c1ccccc1 [Compound 6-1, (Z)-3-Benzylidene-4,5-difluoro-1,3-dihydro-indol-2-one]
16.9 ± 1.67	O=C1Nc2ccc(F)c(F)c2/C1=C/c1ccccc1F [Compound 6-2, (Z)-4,5-Difluoro-3-(2-fluoro-benzylidene)-1,3-dihydro-indol-2-one]
15.9 ± 1.14	O=C1Nc2ccc(F)c(F)c2/C1=C/c1cccc(F)c1 [Compound 6-3, (Z)-4,5-Difluoro-3-(3-fluoro-benzylidene)-1,3-dihydro-indol-2-one]
14 ± 0.73	O=C1Nc2ccc(F)c(F)c2/C1=C/c1ccc(F)cc1 [Compound 6-4, (Z)-4,5-Difluoro-3-(4-fluoro-benzylidene)-1,3-dihydro-indol-2-one]
> 30	O=C1Nc2ccc(F)c(F)c2/C1=C/c1ccc(C(F)(F)F)cc1 [Compound 6-7, (Z)-4,5-Difluoro-3-(4-trifluoromethyl-benzylidene)-1,3-dihydro-indol-2-one]
2.94 ± 0.26	O=C1Nc2ccc(F)c(F)c2/C1=C/c1cccc(OC(F)(F)F)c1 [Compound 6-8, (Z)-4,5-Difluoro-3-(3-trifluoromethoxyl-benzylidene)-1,3-dihydro-indol-2-one]
15.8 ± 3.37	CNS(=O)(=O)c1cccc(/C=C2\C(=O)Nc3ccc(F)c(F)c32)c1 [Compound 6-10, (Z)-3-(4,5-Difluoro-2-oxo-1,2-dihydro-indol-3-ylidenemethyl)-N-methyl-benzenesulphonamide]
> 30	O=C1Nc2cc(F)c(F)cc2/C1=C\c1ccccc1 [Compound 7-1, (E)-3-Benzylidene-5,6-difluoro-1,3-dihydro-indol-2-one]
> 30	O=C1Nc2cc(F)c(F)cc2/C1=C\c1ccccc1F [Compound 7-2, (E)-5,6-Difluoro-3-(2-fluoro-benzylidene)-1,3-dihydro-indol-2-one]
